Results: patent US7033829B2, “Method to inhibit cell growth using oligonucleotides” (Trustees of Boston University, priority 2000, dated 2006)

How the values were obtained:
[1] = test system: GADD 45, ERCC 3 and SDI 1 mRNA; experiment: Northern blot of GADD 45, ERCC 3 and SDI 1 in SCC12F cells; format: cell-based, human; conditions: 100 μM; as early as 24 hours, several days
Experimental: Paired cultures of SCC12F cells were maintained in a Dulbecco's modified Eagle's Medium-based keratinocyte growth medium (DMEM; GIBCO/BRL, Gaithersburg, Md.) supplemented with 10% fetal calf serum (Hyclone Labs, Logan, Utah) and epidermal growth factor as described (Hollander, M. C. et al., J. Biol. Chem. 268:328–336 (1992)). Pre-confluent cultures were given fresh medium supplemented with either 100 μM T2, or an equal volume of diluent. Cells were collected daily after additions, and processed for total RNA isolation using the Tri-Reagent extraction method (Molecular Research Center, Cincinnati, Ohio) following the protocol of the manufacturer. Ten micrograms of RNA from each sample was gel electrophoresed, transferred to a nylon filter and probed as described previously (Nada, A. et al., Exp. Cell Res. 211:90–98 (1994)). The cDNA for GADD 45 was generated by PCR using primers based on the human GADD 45 gene sequence (Mitsudomi, T. et al., Oncogene 7:171–180 (1992)). The cDNA for ERCC 3 was purchased from the American Type Culture Collection (ATCC, Rockville, Md.). The SDI 1 cDNA was a gift of Dr. J. Smith and has been described previously (Walworth, N.C. and Bernards, R., Science 271:353–356 (1996)).

[2] = test system: IL-10; experiment: IL-10 mRNA (RT-PCR) and protein (ELISA) in keratinocytes; format: cell-based, human
Experimental: The immunomodulatory effect of pTpT was tested in vitro using human keratinocytes. Duplicate cultures of primary human keratinocytes were treated with pTpT, diluent or UVB irradiation (200 J/m^2) or sham irradiation. Cells were collected at various times after treatment and analyzed for IL-10 protein by ELISA and for IL-10 mRNA by RT-PCR. An increase in IL-10 mRNA was detected after 6 hours in irradiated cells and after 48 hours in pTpT treated cells. An increase in IL-10 protein of 18 pg/ml was detected 24 hours after irradiation and 15±2 pg/ml 72 hours after treatment with pTpT. […] In the allogenic MLR, T cell activation is measured as lymphocyte proliferation, measured by ^3H-thymidine incorporation. IL-10 activity of culture medium from the 72 hour pTpT sample was measured by addition of the >10 kD components (containing the 18 kD IL-10 protein). […] Thus, like UVB irradiation, pTpT induces IL-10 in human keratinocytes which is likely to cooperate with TNFα to inhibit contact hypersensitivity in pTpT treated skin.

[3] = test system: SDI 1 mRNA; experiment: SDI 1 mRNA in H1299 cells with or without p53 expression vector; format: cell-based, human; conditions: 100 μM, 24 hours
Experimental: Preconfluent cultures of H1299 cells were transfected with an expression vector containing the wild type human p53 cDNA under the control of the human cytomegalovirus promoter/enhancer (Dr. Bert Vogelstein, Johns Hopkins Oncology Center). Control transfections were performed using the vector from which the p53 cDNA was removed. Transfections were carried out using the Lipofectin Reagent Kit (GIBCO/BRL). One day after transfection, cells were collected for Western blot analysis using 20 μg total protein as described (Yaar, M. et al., J. Clin. Invest. 94:1550–1562 (1994)). p53 was detected using mAb 421, anti-mouse Ig linked to horseradish peroxidase (Amersham, Arlington Heights, Ill.) and an ECL-kit (Amersham), following the directions of the manufacturer. At the time of protein collection, duplicate cultures of H1299 cells transfected with the p53 expression vector (designated “p53”) or control vector (“Ctrl”) were given either diluent (DMEM) or 100 μM pTpT. After 24 hours, the cells were collected, processed for RNA isolation and Northern blot analysis with an SDI 1 cDNA probe. The autoradiograph was scanned using a Macintosh IIsi computer and Macintosh One Scanner, and the brightness and contrast were adjusted to display differences in autoradiographic signals maximally. […]

[4] = test system: UV-damaged CAT reporter plasmid in human fibroblasts; experiment: Repair of UV-damaged CAT reporter plasmid in fibroblasts; format: cell-based; conditions: 100 μM for five days before transfection; plasmid 100 mJ/cm^2 UVB
From the text: Expression of a UV-damaged reporter plasmid containing the bacterial chloramphenicol acetyltransferase (CAT) gene under the control of SV40 promoter and enhancer sequences was previously shown to detect decreased DNA repair capacity in human lymphocytes associated with aging and early-onset skin cancers. This reporter plasmid was used to measure the DNA repair capacity of normal neonatal human skin-derived fibroblasts and keratinocytes.
Keratinocytes from newborns were established as described (Stanulis-Praeger, B. M. and Gilchrest, B. A., J. Cell. Physiol. 139:116–124 (1989)) using a modification of the method of Rheinwald and Green (Gilchrest, B. A. et al., J. Invest. Dermatol. 101:666–672 (1993)). First-passage keratinocytes were maintained in a non-differentiating low Ca^2+ medium (K-Stim, Collaborative Biomedical Products, Bedford, Mass.). […] CAT enzyme activity was determined using the liquid scintillation counting protocol and components of the assay system kit. […] Protein concentration in the cell extracts was determined by the method of Bradford (Anal. Biochem. 72:248 […]). CAT activity was expressed as c.p.m./100 μg protein and is represented as percent activity of cells transfected with sham-irradiated, non-damaged, plasmid.

thymidine dinucleotide [pTpT]
mRNAs for GADD 45, ERCC 3 and SDI 1 [1]: up-regulated | increase in IL-10 protein ([2]; 72 hours after treatment): 15 ± 2 pg/mL | time after which an increase in IL-10 mRNA was detected ([2]; primary human keratinocytes): 48 h | level of SDI 1 transcript ([3]; H1299 transfected with wild-type p53 expression vector): inducible by addition of pTpT | level of SDI 1 transcript ([3]; p53-null H1299 cells): not affected by addition of pTpT | CAT activity relative to sham-irradiated transfected controls [4]: more than 50%
